# Tests used:
# [1] = test system: MSC; experiment: RT-qPCR relative gene expression in untreated or preconditioned MSC; type: cell-based, mouse; details: for hgf transcripts / pdgf transcripts / vegf-α transcripts: then H2O2 4 h, vs untreated MSC/H2O2; for bcl2 gene expression level: then H2O2, vs H2O2-treated MSC
# Method: FIG. 8: (A) 48 hours after the seeding step in complete medium, MSC were subjected to H2O2-induced oxidative stress during 4 hours in minimal medium with serum deprivation. Pharmacological preconditioning of MSC using PPARβ/δ agonist or antagonist was performed 24 hours before oxidative stress exposure. At the end of the protocol, relative gene expression was analyzed measuring transcript amounts by RT-qPCR. mRNA expression levels in untreated or preconditioned MSC exposed to an oxidative stress were assessed by RT-qPCR for (B) vegf: data (mean±SEM) were compared using ANOVA and the Tukey's post hoc for multiple comparisons (normality test passed). […] P values were ns versus H2O2, n=7 for control n=8, GW0742 0.1 μM n=7, GW0742 1 μM n=9, GSK0660 0.1 μM n=6 and GSK0660 1 μM n=9; and (D) for pdgf: data (mean±SEM) were compared using ANOVA and the Tukey's post hoc for multiple comparisons (normality test passed). […] For statistical analysis comparisons were made to the untreated MSC/H2O2 group.
# MSCs were pre-incubated for 24 hours with either PPARβ/δ antagonists GSK3787 (0.1 and 1 μM), PPARβ/δ inverse agonist GSK0660 (0.1 and 1 μM) or PPARβ/δ agonist GW0742 (0.1, 1 and 5 μM) before to be washed with PBS and used in co-cultures experiments or injected in the myocardium. When indicated, MSCs were labeled with the fluorescent cell-tracer CM-Dil (Molecular Probes). MSC were collected and suspended in 5 mL PBS containing CM-Dil (10^7 cells/10 μg) prior to be incubated at 37° C. for 5 minutes followed by 15 minutes at 4° C., in the dark. Labeled MSCs were washed 2 times in PBS, resuspended in PBS and maintained at 4° C. prior to be injected in the myocardium.
# Isolation of total RNA for each sample was performed using the RNeasy Mini Kit (Qiagen, Courtaboeuf). The quantity and quality of the RNA extracted were defined by using a NanoDrop ND-1000 spectrophotometer (NanoDrop ND, Thermo Fisher Scientific). Then, using the SensiFAST cDNA synthesis kit (Bioline), cDNA was synthesized by reverse transcribing 500 ng RNA into cDNA. Using the SensiFAST™ SYBR (Bioline) and a LightCycler® 480 Detection system Quantitative following manufacturer's recommendations, PCR were performed. Primers specific for angpl4, pdk4, bcl2, hgf, pdgf, nrf2 were designed using the Primer3 software. Data were normalized to the housekeeping gene ribosomal protein S9 (RPS9) and the values were expressed as relative mRNA level of specific gene expression as calculated using the 2^−ΔCt method.
# [2] = test system: LV protein extracts from murine IR hearts; experiment: Western blot of LV protein extracts from ex vivo IR hearts (cleaved caspase 3, pAKT/AKT, pERK1/2/ERK1/2); design: species or system mouse (C57BL/6J); details: for Cleaved caspase 3 (caspase 3 activation): IR hearts reperfused with MSC 2500 cells/mL, pre-treated 24 h or not (GW0742 1 μM)
# Method: FIG. 9: (A) C57B16 mouse hearts were mounted on a Langendorff system. The ex vivo protocol comprises a 15 minute-period of stabilization, followed by 30 minutes of global ischemia achieved by stopping the flow through the aorta (no-flow). Reperfusion was achieved by restoring the Tyrode perfusion during 60 minutes (IR group). […] At the end of the protocol, hearts were collected, protein extracted for further analysis. (B, C, D) Western blot analysis was performed from LV protein extracts from IR non-treated or MSC-treated murine IR hearts (ex vivo) with or without a pharmacological pre-treatment. Scatter dot blots and mean±SD were plotted for Cleaved-caspase 3 (W=0.0322 for IR, n=10 vs MSC +GW0742, n=10) and for pAKT/AKT (p*=0.0385 for IR, n=8 vs MSC+GW0742, n=8). Data were compared using non parametric Kruskal-Wallis test (Dunn's post hoc test).
# On the Langendorff system, the heart was subjected to ischemia-reperfusion (IR) protocol comprising, after a 15 min-stabilization period of Tyrode perfusion, a 30 min-period of no-flow to induce global ischemia). Reperfusion was achieved by restoring the perfusion during 60 min with the Tyrode solution alone (IR control) or with MSC cell in Tyrode solution (MSC) administrated during reperfusion. Ischemic postconditioning was induced at the end of global ischemia by the application of a conditioning stimulus comprising 3 cycles of 1 min-reperfusion/1 min-ischemia, followed by 54 min of reperfusion. For the ex vivo evaluation of MSC-based cell therapy, 80 to 150 mL of MSC (mean value 120 mL) cells prepared in the Tyrode solution at various concentrations (2500, 5000 et 20000 cells/mL) were perfused retrogradely via the aorta and the coronary vessels in isolated hearts during the 60 min-reperfusion phase.
# Tissue samples (left ventricle) were rapidly frozen in liquid nitrogen after the end of ex vivo IR protocols. […] Protein concentrations were determined with the bicinchoninic acid (BCA) protein assay kit (Pierce). […]
# [3] = MSC pretreated 24 h with 0.1 μM
# [4] = pretreatment of cultured MSC (data not shown)
Structure (SMILES),"hgf transcripts [1, 3]","pdgf transcripts [1, 3]","vegf-α transcripts [1, 3]",hgf transcripts ([1]; MSC pretreated 24 h with 1 μM),pdgf transcripts ([1]; MSC pretreated 24 h with 1 μM),vegf-α transcripts ([1]; MSC pretreated 24 h with 1 μM),bcl2 gene expression level ([1]; MSC pretreated 24 h with 1 μM),Cleaved caspase 3 (caspase 3 activation) [2],"bcl2 gene expression level [1, 3]","angpl4 target gene expression level [1, 4]","pdk4 target gene expression level [1, 4]","Phosphorylation ratio pAkt/Akt ([2]; IR hearts, MSC pre-treated with 1 μM prior to administration during reperfusion, vs non-treated IR)"
COC(=O)c1sccc1S(=O)(=O)Nc1ccc(Nc2ccccc2)cc1OC [GSK0660],A similar tendency was observed,A similar tendency was observed,significantly decreased,A similar tendency was observed,A similar tendency was observed,significantly decreased,significantly reduced bcl2 gene expression level,restored full activation of caspase 3,–,–,–,–
Cc1cc(SCc2sc(-c3ccc(C(F)(F)F)c(F)c3)nc2C)ccc1OCC(=O)O [GW0742],did not modify,–,did not modify,did not modify,significantly increased the expression of pdgf,did not modify,–,inhibition of caspase 3 cleavage was further increased,significant increase in bcl2 gene expression level,increased expression levels,increased expression levels,significantly increased phosphorylation ratio pAkt/Akt

# Source: patent publication US20240091267A1, “PRE-TREATMENT OF MSC WITH PPARB/DELTA AGONIST FOR TREATMENT OF ISCHEMIA-REPERFUSION INJURY” (Universite de Montpellier, priority 2020, published 2024)
